{"source": "patent US20260345555A1", "about": "“Compositions and Methods for Protecting Salivary Glands from Off-Target Radiation Damage” (University of Rochester, priority 2022, published 2026)", "key": {"[1]": {"system": "Reduced glutathione in salivary gland cell clusters (SGm)", "assay": "Glutathione assay in salivary gland tissue chip, 4 days post-radiation (15 Gy); also first screen of Selleck library at 100 μM; on Glutathione (radioprotection): key: +: radioprotection; ~: partial radioprotection; —: no radioprotection", "type": "cell-based, mouse", "details": "for prevention of radiation-induced reduction of glutathione levels: 4 days post-radiation; for Estimated EC50, Glutathione: nonlinear fit in Prism of dose response curves", "outline": "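Mouse submandibular gland cell clusters (20–100 μm) in PEG hydrogel on microbubble chips, cultured 4 days to form SGm, then dosed 30 min before and during 15 Gy irradiation and washed out 30 min after. Glutathione measured 4 days post-radiation; library compounds screened at 100 μM, hits matching 0 Gy levels.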"}, "[2]": {"system": "γH2AX foci per nucleus in mouse submandibular gland", "assay": "In vivo radioprotection of mouse salivary gland: γH2AX foci per nucleus (IHC) 48 hours after 15 Gy, retroductal injection", "method": "Female SKH1 hairless mice, backcrossed 6 generations with C57BL/6J mice, aged 6-12 weeks were used in this study for in vitro assay development and drug discovery. Female C57BL/6J mice age 6-8 weeks were used for in vivo validation studies. […] Animals were maintained on a 12 hr light/dark cycle and group-housed with food and water available ad libitum.\nBriefly, 6-10 week old female C57Bl/6 J mice were anesthetized by intraperitoneal injection of sterile saline solution of 100 mg/kg ketamine and 10 mg/kg xylazine. Maxillary incisors were secured over a metal beam, while an elastic band provided tension from behind the mandibular incisors. The mouth was widened using a custom steel retractor to apply pressure to the buccal mucosa and the tongue was retracted and cotton placed in the oral cavity. The wire inset of a 32 G intracranial catheter was cut at […] to create a bevel. The beveled wire created a shallow puncture in the left salivary papilla. A beveled catheter section containing the wire insert for support was gently inserted into the puncture site. The catheter was removed, and 1 mg/kg atropine was administered by intraperitoneal injection. After 10 min, the needle of a Hamilton syringe, loaded with vehicle or drug solution, was inserted into the catheter, and the catheter was inserted into the orifice produced in the papilla. Drug solutions were injected by hand at 10 μl/min at a volume of 1 μl/g of body weight. Following injection, the pressure was maintained on the syringe for 1 min to ensure material retention before removal of the catheter.\nThe head and neck region was positioned over the slit of a custom collimator, which allowed body shielding.\nSubmandibular glands and SGm were isolated and fixed in 4% paraformaldehyde overnight at 4 °C. Tissues were paraffin-embedded and then cut into […] sections. […] Permeabilization was performed with 0.5% Triton X-100 in PBS for 5 minutes. […] Following a PBS rinse, […] DAPI (Invitrogen, Carlsbad, CA) in PBS was applied to sections for 5 minutes. Sections were washed thrice in PBS for 5 minutes and the slides were mounted using Immu-Mount mounting medium (Thermo). Microscopic images were acquired using a Leica TCS SP5 confocal microscope with a 100× oil immersion objective and Argon laser. Analysis of images was performed in ImageJ."}, "[3]": {"details": "phenylbutazone 50 mg/kg, corn oil"}}, "data": [{"molecule": "NCCCNCCS", "note": "[WR-1065]", "values": [{"measurement": "prevention of radiation-induced reduction of glutathione levels", "setting": "[1]; 0.1 mM, 15 Gy", "result": "ineffective"}, {"measurement": "prevention of radiation-induced reduction of glutathione levels", "setting": "[1]; 0.4 mM, 15 Gy", "result": "ineffective"}, {"measurement": "Glutathione (radioprotection)", "setting": "[1]; 1 mM", "result": "+"}, {"measurement": "prevention of radiation-induced reduction of glutathione levels", "setting": "[1]; 1 mM, 15 Gy", "result": "significant protection"}, {"measurement": "Glutathione (radioprotection)", "setting": "[1]; 4 mM", "result": "+"}, {"measurement": "prevention of radiation-induced reduction of glutathione levels", "setting": "[1]; 4 mM, 15 Gy", "result": "significant protection"}, {"measurement": "reduction in γH2AX foci per nucleus compared to 15 Gy controls", "setting": "[2]; WR-1065 50 mg/kg", "result": 0.5, "unit": "fold"}, {"measurement": "γH2AX foci per nucleus versus 0 Gy controls", "setting": "[2]; WR-1065 50 mg/kg", "result": "No significant differences"}]}, {"molecule": "CCn1cc(C(=O)O)c(=O)c2cc(F)c(N3CCNCC3)nc21", "note": "[Enoxacin (Penetrex)]", "values": [{"measurement": "radioprotection in dose response, glutathione assay", "setting": "[1]; dose response, 15 Gy", "result": "protection only at higher concentrations"}, {"measurement": "Estimated EC50, Glutathione", "setting": "[1]; 15 Gy", "result": 2.4, "unit": "µM"}, {"measurement": "reduction in γH2AX foci per nucleus compared to 15 Gy controls", "setting": "[2]; enoxacin 0.3 mg/kg", "result": 0.5, "unit": "fold"}, {"measurement": "increase in γH2AX foci per nucleus", "setting": "[2]; enoxacin 0.3 mg/kg, comparator not given", "result": 1.6, "unit": "fold"}]}, {"molecule": "Doripenem hydrate", "values": [{"measurement": "radioprotection in dose response, glutathione assay", "setting": "[1]; dose response, 15 Gy", "result": "protection only at higher concentrations"}, {"measurement": "Estimated EC50, Glutathione", "setting": "[1]; 15 Gy", "result": 8.6, "unit": "µM"}, {"measurement": "increase in γH2AX foci per nucleus compared to 0 Gy controls", "setting": "[2]; doripenem hydrate 26 mg/kg", "result": 2.7, "unit": "fold"}, {"measurement": "reduction of γH2AX foci per nucleus relative to 15 Gy controls", "setting": "[2]; doripenem hydrate 26 mg/kg", "result": "did not reduce"}]}, {"molecule": "CCCCC1C(=O)N(c2ccccc2)N(c2ccccc2)C1=O", "note": "[Phenylbutazone]", "values": [{"measurement": "concentration range of radioprotection, glutathione assay", "setting": "[1]; dose response, 15 Gy", "result": "0.1 to 100", "unit": "µM"}, {"measurement": "Estimated EC50, Glutathione", "setting": "[1]; 15 Gy", "result": 0.08, "unit": "µM"}, {"measurement": "reduction in γH2AX foci per nucleus compared to 15 Gy controls", "setting": "[2]; [3]", "result": 0.4, "unit": "fold"}, {"measurement": "γH2AX foci per nucleus versus 0 Gy controls", "setting": "[2]; [3]", "result": "not significantly different from 0 Gy controls"}]}]}
